Source: the NIST ThermoML archive (doi:10.1016/j.jct.2019.04.010)
± gives the expanded uncertainty stated by the source.

Assays:
[1] = 100 kPa, Liquid; for viscosity: Concentric cylinders viscometry; for mass density: Vibrating tube method
[2] = xn = mol fraction of the nth substance listed; conditions: 100 kPa, Liquid, x2 = 0; for viscosity: Concentric cylinders viscometry; for mass density: Vibrating tube method

CCCCn1cc[n+](C)c1.O=[N+]([O-])[O-] [1-butyl-3-methylimidazolium nitrate]
[1]
Conditions | mass density [kg/m3] | viscosity [mPa·s]
293.15 K | 1158.3 ± 1.5 | 223.54 ± 45
298.15 K | 1155.2 ± 1.5 | 168.97 ± 34
303.15 K | 1152.3 ± 1.5 | 125.36 ± 25
308.15 K | 1149.3 ± 1.5 | 96.74 ± 19
313.15 K | 1146.5 ± 1.5 | 75.12 ± 15
318.15 K | 1143.8 ± 1.4 | 56.28 ± 11
323.15 K | 1141.2 ± 1.4 | 45.17 ± 9.1

CCC(C)O (stereo unspecified) [butan-2-ol] + CCCCn1cc[n+](C)c1.O=[N+]([O-])[O-]
[2]
Conditions | mass density [kg/m3] | viscosity [mPa·s]
293.15 K | 806.7 ± 1 | 3.67 ± 0.73
298.15 K | 802.7 ± 1 | 3.04 ± 0.61
303.15 K | 798.4 ± 1 | 2.54 ± 0.51
308.15 K | 794.1 ± 1 | 2.13 ± 0.43
313.15 K | 789.8 ± 1 | 1.8 ± 0.36
318.15 K | 785.2 ± 1 | 1.54 ± 0.31
323.15 K | 780.6 ± 1 | 1.33 ± 0.27

CCCC(C)O (stereo unspecified) [pentan-2-ol] + CCCCn1cc[n+](C)c1.O=[N+]([O-])[O-]
[2]
Conditions | mass density [kg/m3] | viscosity [mPa·s]
293.15 K | 809.3 ± 1 | 3.97 ± 0.79
298.15 K | 805.3 ± 1 | 3.32 ± 0.66
303.15 K | 801.2 ± 1 | 2.81 ± 0.56
308.15 K | 797 ± 1 | 2.37 ± 0.47
313.15 K | 792.7 ± 1 | 1.99 ± 0.4
318.15 K | 788.4 ± 1 | 1.66 ± 0.33
323.15 K | 784 ± 1 | 1.39 ± 0.28

CC(C)O [propan-2-ol] + CCCCn1cc[n+](C)c1.O=[N+]([O-])[O-]
[2]
Conditions | mass density [kg/m3] | viscosity [mPa·s]
293.15 K | 785.4 ± 1 | 2.42 ± 0.48
298.15 K | 781.1 ± 1 | 2.08 ± 0.42
303.15 K | 776.8 ± 1 | 1.8 ± 0.36
308.15 K | 772.4 ± 1 | 1.56 ± 0.31
313.15 K | 768 ± 1 | 1.36 ± 0.27
318.15 K | 763.4 ± 1 | 1.19 ± 0.24
323.15 K | 758.8 ± 1 | 1.05 ± 0.21
